Q: With `N#CCc1ccccc1NC(=O)CCc1oc(-n2cnc3ccccc32)nc1-c1ccc(Cl)cc1` [Example 111, 3-[2-(1H-benzimidazol-1-yl)-4-(4-chlorophenyl)-5-oxazolyl]-N-[2-(cyanomethyl)phenyl]propionamide] as the compound, how does the melting point read?
A: Its melting point is 235 to 236 °C.

Q: With `CCOP(=O)(Cc1ccc(NC(=O)CCc2oc(-n3ccnc3)nc2-c2ccc(Cl)cc2)cc1)OCC` as the compound, how does the melting point read?
A: Its melting point is 196 to 197 °C.

Q: For `NC(=O)/C=C/c1oc(-c2ccccc2)nc1-c1ccc(Cl)cc1` [Example 55, (2E)-3-[4-(4-chlorophenyl)-2-phenyl-5-oxazolyl]propenamide], which melting point is on record?
A: The melting point was 240 to 241 °C.

Q: Which melting point does the source give for `O=C(CCc1oc(-c2ccccc2)nc1-c1ccc(Cl)cc1)Nc1ccc(C(=O)O)cc1` [Example 63, 4-({3-[4-(4-chlorophenyl)-2-phenyl-5-oxazolyl]propanoyl}amino)benzoic acid] here?
A: The melting point was 243 to 244 °C.

Q: For `NC(=O)c1ccc(NC(=O)CCc2oc(-c3ccccc3)nc2-c2ccc(Cl)cc2)cc1` [Example 66, 4-({3-[4-(4-chlorophenyl)-2-phenyl-5-oxazolyl]propanoyl}amino)benzamide], which melting point is on record?
A: The melting point was 268 to 269 °C.

Q: For `CCOP(=O)(OCC)C(F)(F)c1ccc(NC(=O)CCc2oc(-n3cnc4ccccc43)nc2-c2ccc(Cl)cc2)cc1`, which melting point is on record?
A: Its melting point is 155 to 156 °C.

Q: Which melting point does the source give for `CCOP(=O)(Cc1ccc(NC(=O)CCc2sc(-n3cnc4ccccc43)nc2-c2ccccc2)cc1)OCC` here?
A: Its melting point is 142 to 143 °C.

Q: For `O=C(CCc1sc(-c2ccccc2)nc1-c1ccc(Cl)cc1)Nc1ccc(C(=O)O)cc1` [Example 64, 4-({3-[4-(4-chlorophenyl)-2-phenyl-5-thiazolyl]propanoyl}amino)benzoic acid], which melting point is on record?
A: Its melting point is 294 to 295 °C.

Q: Which melting point does the source give for `CCOP(=O)(Cc1ccc(NC(=O)CCCc2oc(N3CCN(c4ccccn4)CC3)nc2-c2ccc(Cl)cc2)cc1)OCC` here?
A: The melting point was 114 to 116 °C.

Q: Which melting point does the source give for `CCOP(=O)(OCC)c1ccc(NC(=O)CCc2oc(-n3cnc4ccccc43)nc2-c2ccc(Cl)cc2)cc1` here?
A: The melting point was 249 to 250 °C.

Q: Which melting point does the source give for `CCOP(=O)(Cc1ccc(NC(=O)CCc2sc(NC(=O)CCc3ccccc3)nc2-c2ccc(Cl)cc2)cc1)OCC` here?
A: Its melting point is 208 to 209 °C.

Q: For `CCOP(=O)(Cc1ccc(NC(=O)CCCCc2sc(-n3cnc4ccccc43)nc2-c2ccc(Cl)cc2)cc1)OCC`, which melting point is on record?
A: The melting point was 168 to 169 °C.

Q: Which melting point does the source give for `CCOP(=O)(Cc1ccc(NC(=O)CCc2sc(NC(=O)Nc3ccccc3)nc2-c2ccc(Cl)cc2)cc1)OCC` here?
A: Its melting point is 175 to 176 °C.

Q: For `NC(=O)CCc1oc(N2CCN(c3ccccc3)CC2)nc1-c1ccc(Cl)cc1` [Example 31, 3-[4-(4-chlorophenyl)-2-(4-phenyl-1-piperazinyl)-5-oxazolyl]propionamide], which melting point is on record?
A: Its melting point is 187 to 188 °C.

Q: For `CCOP(=O)(Cc1ccc(NC(=O)/C=C/c2sc(-n3cnc4ccccc43)nc2C(C)(C)C)cc1)OCC`, which melting point is on record?
A: Its melting point is 211 to 212 °C.

Q: With `COc1ccccc1NC(=O)Cc1ccc(NC(=O)CCc2oc(-n3cnc4ccccc43)nc2-c2ccc(Cl)cc2)cc1` [Example 139, 2-[4-(N-{3-[2-(1H-benzimidazol-1-yl)-4-(4-chlorophenyl)-5-oxazolyl]propanoyl}amino)phenyl]-N-(2-methoxyphenyl)acetamide] as the compound, how does the melting point read?
A: The melting point was 258 to 259 °C.

Q: With `CCOP(=O)(OCC)c1ccc(NC(=O)CCc2sc(-c3ccccc3)nc2-c2ccc(Cl)cc2)cc1` as the compound, how does the melting point read?
A: Its melting point is 186 to 187 °C.

Q: Which melting point does the source give for `NC(=O)CCc1oc(Oc2ccccc2)nc1-c1ccc(Cl)cc1` [Example 38, 3-[4-(4-chlorophenyl)-2-phenoxy-5-oxazolyl]propionamide] here?
A: Its melting point is 139 to 140 °C.

Q: With `CS(=O)(=O)C1CCN(C(=O)CCc2oc(-n3cnc4ccccc43)nc2-c2ccc(Cl)cc2)CC1` [Example 307, 1-{3-[2-(1H-benzoimidazol-1-yl)-4-(4-chlorophenyl)-5-oxazolyl]propanoyl}-4-(methylsulfonyl)piperidine] as the compound, how does the melting point read?
A: The melting point was 215 to 216 °C.

Q: For `O=C(CCc1oc(-n2cnc3ccccc32)nc1-c1ccc(Cl)cc1)NCc1ccccc1F` [Example 137, 3-[2-(1H-benzimidazol-1-yl)-4-(4-chlorophenyl)-5-oxazolyl]-N-(2-fluorobenzyl)propionamide], which melting point is on record?
A: The melting point was 202 to 203 °C.

Q: Which melting point does the source give for `CCOP(=O)(Cc1ccc(NC(=O)CCc2sc(NC(=S)NCc3ccccc3)nc2-c2ccc(Cl)cc2)cc1)OCC` here?
A: Its melting point is 202 to 203 °C.

Q: Which melting point does the source give for `CCOP(=O)(Cc1ccc(NC(=O)CCc2sc(N)nc2-c2ccc(Cl)cc2)cc1)OCC` here?
A: Its melting point is 177 to 178 °C.

Q: Which melting point does the source give for `CN(C)c1ccc(CNC(=O)CCc2oc(-n3cnc4ccccc43)nc2-c2ccc(Cl)cc2)cc1` [Example 135, 3-[2-(1H-benzimidazol-1-yl)-4-(4-chlorophenyl)-5-oxazolyl)-N-[4-(dimethylamino)benzyl]propionamide] here?
A: Its melting point is 184 to 185 °C.

Q: With `CCOP(=O)(Cc1ccc(NC(=O)CCc2oc(-n3ccnc3C)nc2-c2ccc(Cl)cc2)cc1)OCC` as the compound, how does the melting point read?
A: The melting point was 158 to 159 °C.

Q: With `O=C(CCc1oc(-n2cnc3ccccc32)nc1-c1ccc(Cl)cc1)N1CCC(CO)CC1` [Example 305, (1-{3-[2-(1H-benzoimidazol-1-yl)-4-(4-chlorophenyl)-5-oxazolyl]propanoyl}-4-piperidinyl)methanol] as the compound, how does the melting point read?
A: The melting point was 101 to 102 °C.

Q: For `COc1ccc(NC(=O)CCc2oc(-n3cnc4ccccc43)nc2-c2ccc(Cl)cc2)cc1` [Example 114, 3-[2-(1H-benzimidazol-1-yl)-4-(4-chlorophenyl)-5-oxazolyl]-N-(4-methoxyphenyl)propionamide], which melting point is on record?
A: Its melting point is 240 to 241 °C.

Q: For `CCOP(=O)(Cc1ccc(NC(=O)CCc2oc(N3CCOCC3)nc2-c2ccc(Cl)cc2)cc1)OCC`, which melting point is on record?
A: Its melting point is 186 to 187 °C.

Q: With `CCOP(=O)(Cc1ccc(NC(=O)CCc2oc(-c3ccc(OC)cc3)nc2-c2ccc(Cl)cc2)cc1)OCC` as the compound, how does the melting point read?
A: Its melting point is 141 to 142 °C.

Q: Which melting point does the source give for `O=C(CCc1oc(-n2cnc3ccccc32)nc1-c1ccc(Cl)cc1)NCCc1ccccc1` [Example 136, 3-[2-(1H-benzimidazol-1-yl)-4-(4-chlorophenyl)-5-oxazolyl]-N-(2-phenylethyl)propionamide] here?
A: The melting point was 164 to 165 °C.

Q: For `CCCc1nc(-c2ccc(Cl)cc2)c(CCC(=O)Nc2ccc(CP(=O)(OCC)OCC)cc2)o1`, which melting point is on record?
A: Its melting point is 108 to 109 °C.

Q: For `O=C(O)Cc1ccc(NC(=O)CCc2oc(-n3cnc4ccccc43)nc2-c2ccc(Cl)cc2)cc1` [Example 90, 4-({3-[2-(1H-benzimidazol-1-yl)-4-(4-chlorophenyl)-5-oxazolyl]propanoyl)amino}phenylacetic acid], which melting point is on record?
A: The melting point was 247 to 248 °C.

Q: For `O=C(CCc1oc(-n2cnc3ccccc32)nc1-c1ccc(Cl)cc1)NCc1ccc(-c2csnn2)cc1` [Example 150, 3-[2-(1H-benzimidazol-1-yl)-4-(4-chlorophenyl)-5-oxazolyl]-N-[4-(1,2,3-thiadiazol-4-yl)benzyl]propionamide], which melting point is on record?
A: Its melting point is 173 to 174 °C.

Q: With `CS(=O)(=O)CCNC(=O)CCc1oc(-n2cnc3ccccc32)nc1-c1ccc(Cl)cc1` [Example 302, 3-[2-(1H-benzoimidazol-1-yl)-4-(4-chlorophenyl)-5-oxazolyl]-N-[2-(methylsulfonyl)ethyl]propanamide] as the compound, how does the melting point read?
A: Its melting point is 194 to 195 °C.

Q: With `COc1ccc(-c2nc(-n3cnc4ccccc43)oc2CCC(=O)N2CCC(O)CC2)cc1` [Example 248, 1-(3-[2-(1H-benzoimidazol-1-yl)-4-(4-methoxyphenyl)-5-oxazolyl]propanoyl)-4-piperidinol] as the compound, how does the melting point read?
A: Its melting point is 161 to 162 °C.

Q: For `CCOP(=O)(Cc1ccc(NC(=O)Cc2sc(-n3cnc4ccccc43)nc2-c2ccc(Cl)cc2)cc1)OCC`, which melting point is on record?
A: Its melting point is 154 to 155 °C.

Q: With `CCOP(=O)(Cc1ccc(NC(=O)CCCc2oc(-n3cnc4ccccc43)nc2-c2ccc(Cl)cc2)c(C)c1)OCC` as the compound, how does the melting point read?
A: The melting point was 118 to 119 °C.

Q: With `CCOP(=O)(Cc1ccc(NC(=O)CCCc2oc(N3CCCC3)nc2-c2ccc(Cl)cc2)cc1)OCC` as the compound, how does the melting point read?
A: The melting point was 127 to 128 °C.

Q: For `CCOP(=O)(Cc1ccc(NC(=O)CCc2oc(-c3cccs3)nc2-c2ccc(Cl)cc2)cc1)OCC`, which melting point is on record?
A: Its melting point is 164 to 165 °C.

Q: Which melting point does the source give for `O=C(CCc1oc(-n2cnc3ccccc32)nc1-c1ccc(Cl)cc1)NCCOc1ccccc1` [Example 162, 3-[2-(1H-benzimidazol-1-yl)-4-(4-chlorophenyl)-5-oxazolyl]-N-(2-phenoxyethyl)propionamide] here?
A: The melting point was 156 to 157 °C.

Q: With `CCOP(=O)(Cc1ccc(NC(=O)CCCc2sc(-n3cnc4ccccc43)nc2-c2ccc(Cl)cc2)cc1)OCC` as the compound, how does the melting point read?
A: Its melting point is 140 to 141 °C.

Q: For `COC(=O)c1ccc(NC(=O)CCc2sc(-c3ccccc3)nc2-c2ccc(Cl)cc2)cc1` [Example 45, 3-[4-(4-chlorophenyl)-2-phenyl-5-thiazolyl]-N-[4-(methoxycarbonyl)phenyl]propionamide], which melting point is on record?
A: The melting point was 177 to 178 °C.

Q: For `COP(=O)(Cc1ccc(NC(=O)CCCCCc2sc(-c3ccccc3)nc2-c2ccc(Cl)cc2)cc1)OC`, which melting point is on record?
A: Its melting point is 164 to 165 °C.

Q: Which melting point does the source give for `O=C(CCc1oc(-n2cnc3ccccc32)nc1-c1ccc(Cl)cc1)Nc1ccc(F)cc1` [Example 128, 3-[2-(1H-benzimidazol-1-yl)-4-(4-chlorophenyl)-5-oxazolyl]-N-(4-fluorophenyl)propionamide] here?
A: The melting point was 221 to 222 °C.

Q: For `COc1ccccc1NC(=O)CCc1oc(-n2cnc3ccccc32)nc1-c1ccc(Cl)cc1` [Example 115, 3-[2-(1H-benzimidazol-1-yl)-4-(4-chlorophenyl)-5-oxazolyl]-N-(2-methoxyphenyl)propionamide], which melting point is on record?
A: The melting point was 194 to 195 °C.

Q: For `O=C(CCCc1oc(-c2ccccc2)nc1-c1ccc(Cl)cc1)N1CCN(c2ccccc2)CC1` [Example 51, 1-{4-[4-(4-chlorophenyl)-2-phenyl-5-oxazolyl]butanoyl}-4-phenylpiperazine], which melting point is on record?
A: Its melting point is 104 to 105 °C.

Q: For `O=C(CCCc1oc(-n2cnc3ccccc32)nc1-c1ccc(Cl)cc1)NCc1cc(Br)ccc1F` [Example 195, 4-[2-(1H-benzimidazol-1-yl)-4-(4-chlorophenyl)-5-oxazolyl]-N-(5-bromo-2-fluorobenzyl)butanamide], which melting point is on record?
A: Its melting point is 196 to 198 °C.

Q: Which melting point does the source give for `CCOP(=O)(Cc1ccc(NC(=O)CCc2oc(Sc3ncccn3)nc2-c2ccc(Cl)cc2)cc1)OCC` here?
A: The melting point was 146 to 147 °C.

Q: Which melting point does the source give for `N#CCc1ccc(NC(=O)CCc2oc(-n3cnc4ccccc43)nc2-c2ccc(Cl)cc2)cc1` [Example 89, 3-[2-(1H-benzimidazol-1-yl)-4-(4-chlorophenyl)-5-oxazolyl]-N-[4-(cyanomethyl)phenyl]propionamide] here?
A: The melting point was 212 to 214 °C.

From patent US7183276B2, “Azole compounds” (Takeda Pharmaceutical Company Limited, priority 2002, dated 2007)
